Source: patent US3940382A, “1,2'-Di-N-substituted kanamycin B compounds” (Zaidan Hojin Biseibutsu Kagaku Kenkyu Kai, priority 1973, dated 1976)

Experiments:
drug-resistant bacteria = conditions: cited from earlier work
[1] = test system: Escherichia coli LA290 R64; experiment: MIC, serial dilution on nutrient agar; type: cell-based; conditions: LA290R64, 18 h, read-out: Minimum Inhibitory Concentrations
[2] = test system: Escherichia coli LA290 R55; experiment: MIC, serial dilution on nutrient agar; type: cell-based; conditions: LA290R55, 18 h, read-out: Minimum Inhibitory Concentrations
[3] = test system: Mycobacterium smegmatis ATCC 607; experiment: MIC, serial dilution on nutrient agar; type: cell-based; conditions: Mycolicibacterium smegmatis, ATCC607; Mycobacterium smegmatis ATCC 607; nutrient agar, 37°C, 18 hours; read-out: Minimum Inhibitory Concentrations
[4] = test system: Pseudomonas aeruginosa No.12; experiment: MIC, serial dilution on nutrient agar; type: cell-based; conditions: Pseudomonas aeruginosa No.12; nutrient agar, 37°C, 18 hours; read-out: Minimum Inhibitory Concentrations
Escherichia coli W677 = experiment: MIC, serial dilution on nutrient agar; type: cell-based; conditions: Escherichia coli W677; nutrient agar, 37°C, 18 hours; read-out: Minimum Inhibitory Concentrations
[5] = test system: Escherichia coli JR66/W677; experiment: MIC, serial dilution on nutrient agar; type: cell-based; conditions: Escherichia coli JR66/W677; nutrient agar, 37°C, 18 hours; read-out: Minimum Inhibitory Concentrations
[6] = test system: Pseudomonas aeruginosa TI-13; experiment: MIC, serial dilution on nutrient agar; type: cell-based; conditions: TI13; Pseudomonas aeruginosa TI-13; nutrient agar, 37°C, 18 hours; read-out: Minimum Inhibitory Concentrations
[7] = test system: Klebsiella pneumoniae PCI 602; experiment: MIC, serial dilution on nutrient agar; type: cell-based; conditions: PCI602; Klebsiella pneumoniae PCI 602; nutrient agar, 37°C, 18 hours; read-out: Minimum Inhibitory Concentrations
Escherichia coli K-12 = experiment: MIC, serial dilution on nutrient agar; type: cell-based; conditions: K12; Escherichia coli K-12; nutrient agar, 37°C, 18 hours; read-out: Minimum Inhibitory Concentrations
[8] = test system: Pseudomonas aeruginosa 99; experiment: MIC, serial dilution on nutrient agar; type: cell-based; conditions: Pseudomonas aeruginosa 99; nutrient agar, 37°C, 18 hours; read-out: Minimum Inhibitory Concentrations
[9] = test system: Staphylococcus aureus FDA 209P; experiment: MIC, serial dilution on nutrient agar; type: cell-based; conditions: FDA209P; Staphylococcus aureus FDA 209P; nutrient agar, 37°C, 18 hours; read-out: Minimum Inhibitory Concentrations
[10] = test system: Escherichia coli K-12 ML 1410; experiment: MIC, serial dilution on nutrient agar; type: cell-based; conditions: K12ML1410; Escherichia coli K-12 ML 1410; nutrient agar, 37°C, 18 hours; read-out: Minimum Inhibitory Concentrations
[11] = test system: Escherichia coli K-12 ML 1629; experiment: MIC, serial dilution on nutrient agar; type: cell-based; conditions: K12ML1629; Escherichia coli K-12 ML 1629; nutrient agar, 37°C, 18 hours; read-out: Minimum Inhibitory Concentrations
[12] = test system: Escherichia coli LA290 R56; experiment: MIC, serial dilution on nutrient agar; type: cell-based; conditions: LA290R56, 18 h, read-out: Minimum Inhibitory Concentrations
[13] = test system: Escherichia coli K-12 ML 1630; experiment: MIC, serial dilution on nutrient agar; type: cell-based; conditions: K12ML1630, 37°C, 18 hours, read-out: Minimum Inhibitory Concentrations
Method: The minimum inhibitory concentrations (mcg/ml) of 1,2'-di-N-[(S)-4-amino-2-hydroxybutyryl]-kanamycin B (abbreviated as 1,2'-AHB-KMB), 1,2'-di-N-[(S)-4-amino-2-hydroxybutyryl]-3',4'-dideoxykanamycin B (abbreviated as 1,2'-AHB-DKB), 1,2'-di-N-DL-isoseryl-3',4'-dideoxykanamycin B (abbreviated as 1,2'-IS-DKB) and 1,2'-di-N-DL-isoseryl-kanamycin B (abbreviated as 1,2'-IS-KMB) against various microorganisms were determined according to serial dilution method using nutrient agar medium at 37°C, the estimation being effected after 18 hours incubation. For comparison, the minimum inhibitory concentrations of kanamycin B (abbreviated as KMB) and 3',4'-dideoxykanamycin B (abbreviated as DKB) were also determined in the same manner as mentioned above.

Escherichia coli NIHJ = experiment: MIC, serial dilution on nutrient agar; type: cell-based; conditions: Escherichia coli NIHJ; nutrient agar, 37°C, 18 hours; read-out: Minimum Inhibitory Concentrations
[14] = test system: Klebsiella pneumoniae 22 -3038; experiment: MIC, serial dilution on nutrient agar; type: cell-based; conditions: 223038; Klebsiella pneumoniae 22 -3038; nutrient agar, 37°C, 18 hours; read-out: Minimum Inhibitory Concentrations
[15] = test system: Pseudomonas aeruginosa GN315; experiment: MIC, serial dilution on nutrient agar; type: cell-based; conditions: Pseudomonas aeruginosa GN315; nutrient agar, 37°C, 18 hours; read-out: Minimum Inhibitory Concentrations
[16] = test system: Pseudomonas aeruginosa A3; experiment: MIC, serial dilution on nutrient agar; type: cell-based; conditions: Pseudomonas aeruginosa A3; nutrient agar, 37°C, 18 hours; read-out: Minimum Inhibitory Concentrations

## NC[C@@H]1CC[C@@H](N)[C@@H](O[C@H]2[C@H](O[C@@H]3O[C@H](CO)[C@@H](O)[C@H]3O)[C@@H](O)[C@H](N)C[C@@H]2N)O1 [3',4'-dideoxyribostamycin]
drug-resistant bacteria
  antibacterial activity against the drug-resistant bacteria: improved antibacterial activity

## NC[C@H]1O[C@H](O[C@H]2[C@H](O[C@@H]3O[C@H](CO)[C@@H](O)[C@H]3O)[C@@H](O)[C@H](N)C[C@@H]2N)[C@H](N)C[C@@H]1O [3'-deoxyribostamycin]
drug-resistant bacteria
  antibacterial activity against the drug-resistant bacteria: improved antibacterial activity

## NCC(O)C(=O)N[C@@H]1CC[C@@H](CN)O[C@@H]1O[C@H]1[C@H](O)[C@@H](O[C@H]2O[C@H](CO)[C@@H](O)[C@H](N)[C@H]2O)[C@H](NC(=O)C(O)CN)C[C@@H]1N (mixture of isomers) [1,2'-IS-DKB, 1,2'-di-N-DL-isoseryl-3',4'-dideoxykanamycin B]
[1]
  MIC: 6.25 µg/mL
[2]
  MIC: 6.25 µg/mL
[3]
  MIC: 1.56 µg/mL
[4]
  MIC: 25 µg/mL
Escherichia coli W677
  MIC: 3.13 µg/mL
[5]
  MIC: 12.5 µg/mL
[6]
  MIC: 12.5 µg/mL
[7]
  MIC: 3.13 µg/mL
Escherichia coli K-12
  MIC: 6.25 µg/mL
[8]
  MIC: 50 µg/mL
[9]
  MIC: 1.56 µg/mL
[10]
  MIC: 6.25 µg/mL
[11]
  MIC: 6.25 µg/mL
[12]
  MIC: 6.25 µg/mL
[13]
  MIC: 6.25 µg/mL
Escherichia coli NIHJ
  MIC: 6.25 µg/mL
[14]
  MIC: 12.5 µg/mL
[15]
  MIC: > 100 µg/mL
[16]
  MIC: 6.25 µg/mL

## NC[C@@H]1CC[C@@H](N)[C@@H](O[C@H]2[C@H](O)[C@@H](O)[C@H](N)C[C@@H]2N)O1 [3',4'-dideoxyneamine]
drug-resistant bacteria
  antibacterial activity against the drug-resistant bacteria: improved antibacterial activity
